Test results taken from patent US20070203109A1, “Compounds And Compositions For Treatment Of Cancer” (priority 2004, published 2007).
“Also recorded” adds a separate entry of the source. Read-outs that look alike come from different tables or passages of the source.

Legend:
DT-Diaphorase (DTD) = DT-Diaphorase (DTD) (Homo sapiens, UniProt P15559); test: Suitability as substrate for DTD (activation by DTD); format: biochemical
Source text: The results of these tests are set out in Table 2.

[1] = system: DNA of peripheral blood lymphocytes; test: Comet-X assay of patients' peripheral blood lymphocytes in the Phase I trial; format: in vivo, human
Source text: A modified version of the single cell gel electrophoresis comet assay, the Comet-X, specifically detects DNA cross-linking in individual cells and has been validated for clinical trial use. 9 patients have been treated with RH-1 and PMBCs (peripheral blood lymphocytes) isolated from pre-infusion and post infusion time points on both day 1 and day 5 of treatment were subjected to Comet-X assay (FIG. 2). From the data obtained, accumulative DNA damage appears to be occurring in PBMC's over the 5 day infusion period leading to significant DNA cross linking (30%) by day 5 (FIG. 3). Other PD (pharmacodynamic) assays used in the trial include assessment of DTD levels and activity and RFLP genotyping of the NQO1 gene.
(§1) The Comet assay is a sensitive method of detecting DNA breaks in single cells. The cells are embedded in agarose and spread onto microscope slides. After lysis and de-proteinisation, the cells are subjected to alkaline unwinding at high pH (12.5). The DNA becomes relaxed and unwinds at points where DNA single and double strand breaks occur. The cells are then finally subjected to micro-electrophoresis during which relaxed and damaged DNA migrates away from the nucleus resulting in the classic comet shape when visualised under microscopy. This migration of DNA is retarded when the DNA has been subjected to interstrand cross-linking by drugs such as RH1. In the comet-X assay used in this trial, control non-drug treated lymphocytes from the patient's pre-infusion are subjected to gamma radiation to introduce a fixed number of DNA breaks into each cell. This treatment results in a fixed amount of migration under electrophoresis quantified as the percentage (%) of DNA in the tail of the comet image. Patients lymphocytes exposed to RH1 on infusion are collected and irradiated with the same dose of gamma radiation as the control pre-infusion lymphocytes. It was expected that interstrand cross-links produced by RH1 will retard the migration of DNA during electrophoresis resulting in less DNA in the tail of the comet compared to the irradiation only controls. Results are expressed as % DNA cross linked.
To date 12 patients have been treated with RH1 and peripheral blood lymphocytes isolated from pre-infusion and post infusion time points on both day 1 and day 5 of treatment. These lymphocytes have been subjected to the Comet-X assay described above and the amount of DNA present in the tail of the comets following irradiation has been measured. Internal QC samples have been run each time a patients samples have been processed. The data has been pooled into exposure times (short 5-10 minutes, medium 40-120 minutes and long 4-24 hrs exposure) and dose cohorts, (1) 40-135 μg/m^2, (2) 200-326 μg/m^2, (3) 410-810 μg/m^2, and (4) […] ranges for ease of analysis.

[2] = system: DNA of human lymphocytes (PBLs); test: RH1 drug dosimetry in human lymphocytes in vitro (Comet-X assay); format: cell-based
Protocol: Optimal DNA cross-linking is shown in the range 50 to 100 nM RH1.
as §1, with “It was expected that interstrand cross-links produced by RH1 will retard the migration of DNA during electrophoresis resulting in less DNA in the tail of the comet compared to the irradiation only controls.” left out, “linked. […]” for “linked.”

physchem [3] = details: 25 °C, aqueous buffer
solid tumours = test: Phase I clinical trial: safety, tolerability and anti-tumour response; format: in vivo, human
Source text: The RH1 trial involved administering RH1 to patients having histologically proven solid tumours that were refractory to conventional treatment or for whom no conventional treatment exists. The WHO performance status of these patients was 0 or 1. WHO performance status is an indicator of a patients overall level of well being/activity. A WHO performance status of 0 means that the patient is fully active, able to carry out all normal activity, without restriction. A WHO performance status of 1 means the patient is restricted in physically strenuous activity but ambulatory and able to carry out work of a light or sedentary nature, e.g. light house work, office work.
(§2) RH1 was administered intravenously on a daily schedule for 5 day periods following a dose escalation scheme. Treatment was repeated on a 21 day cycle. A dose escalation scheme was used to try to establish dose-limiting toxicity. Predicted toxicity includes myelosuppression, emesis, renal toxicity and local injection site irritation. Safety and tolerability were monitored each cycle. Anti-tumour response was assessed after each 2 cycles using RECIST criteria.

skin biopsy lesions = test: Comet-X assay on skin biopsy lesions; format: in vivo, human; details: highest cohort treated
physchem [4] = details: buffer, pH 7
clinical = test: clinical; set-up: species or system human; details: in vivo; for half-life: iv
Protocol: RH-1 is activated by NAD(P)H: Quinone acceptor oxidoreductase (NQO1; DT-diaphorase, DTD). DTD is often over-expressed in lung, colon, liver and breast tumours. RH-1 is undergoing Phase I trial at the Christie Hospital, UK. The pharmacokinetic (PK) requirements of this trial required assays that detect nM levels of RH-1 in serum using LC-MS. The extraction and quantitation of RH-1 from human plasma was validated and a limit of detection of 1 ng/ml reached.
as §2
Patients lymphocytes exposed to RH1 on infusion were analysed using the comet-X assay, which detects DNA interstrand cross-links.

DT-Diaphorase (DTD), sequence (P15559 whole entry): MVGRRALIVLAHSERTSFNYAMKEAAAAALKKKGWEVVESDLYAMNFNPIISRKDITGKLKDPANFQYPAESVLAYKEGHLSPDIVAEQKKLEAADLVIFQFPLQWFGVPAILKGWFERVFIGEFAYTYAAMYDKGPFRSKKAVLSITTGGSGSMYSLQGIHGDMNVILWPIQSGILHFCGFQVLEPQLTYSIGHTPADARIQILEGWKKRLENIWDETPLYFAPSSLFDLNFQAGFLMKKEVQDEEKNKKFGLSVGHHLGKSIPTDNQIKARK

## CO[C@@]12[C@H](COC(N)=O)C3=C(C(=O)C(C)=C(N)C3=O)N1C[C@@H]1N[C@@H]12 [Mitomycin C]
DT-Diaphorase (DTD)
  DTD substrate: Poor
DT-Diaphorase (DTD); listed as mitomycin C
  DTD substrate: relatively poor substrate

## CC1=C(N2CC2)C(=O)C(CO)=C(N2CC2)C1=O [RH1, 2,5-diaziridinyl-3-hydroxymethyl-6-methyl-1,4-benzoquinone]
[1]; all patients, statistical analysis
  cross-linking on day 5 compared with day 1: significantly more cross-linking
[1]; by day 5 of the 5 day infusion period
  DNA cross linking in PBMCs: 30%
[1]; day 1, similar to irradiated control
  % DNA in the tail (distribution peak): 70-80%
[1]; day 5, PBLC population
  % DNA in the tail (distribution peak): 60-70%
[1]; highest cohort (1080-1095 mg/m^2), day 5
  degree of cross-linking in PBMCs, highest cohort: 15-20%
[1]; medium dose cohort, day 1 (particularly 4 hr, 24 hr samples) and throughout day 5
  DNA cross-linking, medium dose cohort: evidence of DNA cross-linking
[1]; pooled data, low dose cohort, day 1 or day 5
  DNA cross-linking, low dose cohort: no DNA cross-linking
[2]; PBLs treated 5-100 nM RH1, 2 hours, 37° C., concentration increased to 50 nM
  dose response of DNA cross-linking: increase in DNA cross-linking
[2]; human lymphocytes, Comet-X, FIG. 1
  RH1 concentration range of optimal DNA cross-linking: 50 to 100 nM
DT-Diaphorase (DTD)
  DTD substrate: excellent substrate
DT-Diaphorase (DTD); listed as RH-1
  DTD substrate: good substrate
Physchem [3]
  solubility: > 500 µg/mL
Solid tumours; patient 005, 265 μg/m^2/d
  toxicity, patient 5: grade I thrombocytopenia; also recorded: grade I renal impairment
Solid tumours; patient 007, dose level 7
  toxicity, patient 007: evidence of toxicity
Solid tumours; patients 001-004, 40-200 μg/m^2/d i.v. daily x5
  treatment-related toxicity, first 4 patients: no treatment-related toxicity
Skin biopsy lesions
  Comet-X result on skin biopsy lesions: demonstrate efficacy
Physchem [4]
  half-life: > 48 h
clinical; human
  Clearance saturability: did not appear to be saturable
clinical; human, half-life (clearance from the blood)
  half-life: ~6 min
clinical; human, plasma half-life
  half-life: 2 to 12 min
clinical
  relationship between drug dose and area under the curve: linear relationship

## CCOC(=O)NC1=C(N2CC2)C(=O)C(NC(=O)OCC)=C(N2CC2)C1=O [AZQ, 3,6-diaziridinyl-2,5-bis-(carboethoxyamino)1,4-benzoquinone]
DT-Diaphorase (DTD)
  DTD substrate: Moderate

## O=C1C(NCCO)=C(N2CC2)C(=O)C(NCCO)=C1N1CC1 [BZQ, 3,6-diaziridinyl-2,5-bis-2(-hydroxyethylamino)1,4-benzoquinone]
DT-Diaphorase (DTD)
  DTD substrate: Poor

## Cn1c(/C=C/CO)c(CO)c2c1C(=O)C=C(N1CC1)C2=O [E09, 3-HYDROXYMETHYL-5-AZIRIDINYL-1METHYL-2-[1H-INDOLE-4,7-DIONE]-PROPANOL]
DT-Diaphorase (DTD)
  DTD substrate: Moderate
